The test has as its target Enoyl-[acyl-carrier-protein] reductase [NADH] (Mycobacterium tuberculosis, UniProt P9WGR1, S94A).

SMILES strings stand for the structures.

Take `CC(C)[C@H]1OC(=O)[C@H](C)[C@H](O)[C@H](Cc2cccnc2)NC(=O)[C@@H](NC(=O)c2ncccc2O)[C@@H](C)OC1=O`: the IC50 (usually the midpoint of a concentration-inhibition curve) was 32.8 µM. Turning to `CC[C@H]1OC(=O)[C@H](C)[C@H](O)[C@H](Cc2cccnc2)NC(=O)[C@@H](NC(=O)c2ncccc2O)[C@@H](C)OC1=O`, inhibition was half-maximal at 127 µM (IC50). In turn, `CC[C@@H](C)[C@H]1OC(=O)[C@H](C)[C@H](O)[C@H](Cc2cccnc2)NC(=O)[C@@H](NC(=O)c2ncccc2O)[C@@H](C)OC1=O` registered an IC50 of 31.5 µM. The value for `C[C@@H]1C(=O)N[C@H](C2CCCCC2)C(=O)O[C@H](C)[C@H](NC(=O)c2ncccc2O)C(=O)N[C@@H](Cc2cccnc2)[C@@H]1O` was 291 µM; that for `C[C@H]1OC(=O)[C@@H](Cc2ccccc2)OC(=O)[C@H](C)[C@H](O)[C@H](Cc2cccnc2)NC(=O)[C@H]1NC(=O)c1ncccc1O` was 29.1 µM. Then `CC[C@H](C)[C@H]1OC(=O)[C@H](C)[C@H](O)[C@H](Cc2cccnc2)NC(=O)[C@@H](NC(=O)c2ncccc2O)[C@@H](C)OC1=O`, with 87.2 µM.

These data come from ChEMBL document CHEMBL4376876 (J Med Chem, 2020).
